Experimental data as given in ChEMBL document CHEMBL1148361, “Total synthesis and anti-tubulin activity of epi-c3 analogues of cryptophycin-24” (J Med Chem, 2004).

What was measured:
NCI/ADR-RES = assay: In vitro inhibitory activity of compound against induced cytotoxicity in multidrug-resistant MCF-7/ADR breast cancer cell line; assay type: functional, cell-based, Homo sapiens
[1] = In vitro inhibitory activity of compound against microtubule polymerization in a tubulin assembly assay; assay type: functional
MCF7 = assay: In vitro inhibitory activity of compound against induced cytotoxicity in MCF-7 cell line; assay type: functional, cell-based, Homo sapiens
[2] = Resistance factor was expressed as the IC50 of resistance cell line / IC50 of sensitive cell line; assay type: functional

Work on COc1ccc(C[C@H]2NC(=O)/C=C/C[C@@H]([C@H](C)/C=C/c3ccccc3)OC(=O)[C@@H](CC(C)C)OC(=O)CCNC2=O)cc1 yielded an IC50 (NCI/ADR-RES; Homo sapiens, NCI/ADR-RES) greater than 25 nM, an IC50 [1] greater than 100000 nM and an IC50 (MCF7; Homo sapiens, MCF7) greater than 25 nM.

Compound COc1ccc(C[C@H]2NC(=O)/C=C/C[C@@H]([C@H](C)/C=C/c3ccccc3)OC(=O)[C@@H](CC(C)C)OC(=O)CCNC2=O)cc1Cl has an IC50 (NCI/ADR-RES; Homo sapiens, NCI/ADR-RES) greater than 25 nM, an IC50 [1] greater than 100000 nM and an IC50 (MCF7; Homo sapiens, MCF7) greater than 25 nM.

In the case of COc1ccc(C[C@H]2NC(=O)/C=C/CC(C(C)C3OC3c3ccccc3)OC(=O)[C@@H](CC(C)C)OC(=O)CCNC2=O)cc1Cl (single isomer, unassigned), the IC50 (NCI/ADR-RES; Homo sapiens, NCI/ADR-RES) is reported as 0.92 nM, the IC50 [1] is reported as 10600 nM and the IC50 (MCF7; Homo sapiens, MCF7) is reported as 0.28 nM. The Resistance factor [2] was 3.3.

COc1ccc(C[C@H]2NC(=O)/C=C/C[C@@H](C(C)[C@H]3O[C@@H]3c3ccccc3)OC(=O)C(CC(C)C)OC(=O)CCNC2=O)cc1 (single isomer, unassigned) [ARENASTATIN A] showed an IC50 (NCI/ADR-RES; nci/adr-res) of 2400 nM, an IC50 [1] of 13700 nM and an IC50 (MCF7; mcf7) of 88 nM. The Resistance factor [2] was 27.3.

Compound COc1ccc(C[C@H]2NC(=O)/C=C/C[C@@H](C(C)[C@H]3O[C@@H]3c3ccccc3)OC(=O)[C@H](CC(C)C)OC(=O)CCNC2=O)cc1 (single isomer, unassigned) [ARENASTATIN A] has an IC50 (NCI/ADR-RES; nci/adr-res) of 250 nM, an IC50 [1] of 15800 nM and an IC50 (MCF7; Homo sapiens, MCF7) of 0.13 nM. For the same compound, the Resistance factor [2] was 1.9.

COc1ccc(C[C@H]2NC(=O)/C=C/C[C@@H]([C@H](C)[C@H]3O[C@@H]3c3ccccc3)OC(=O)[C@H](CC(C)C)OC(=O)[C@H](C)CNC2=O)cc1Cl [CRYPTOPHYCIN A] gave an IC50 (NCI/ADR-RES; Homo sapiens, NCI/ADR-RES) of 0.018 nM, an IC50 [1] of 3400 nM and an IC50 (MCF7; Homo sapiens, MCF7) of 0.009 nM. For the same compound, the Resistance factor [2] was 2.
